From ChEMBL document CHEMBL5634117 (Eur J Med Chem, 2023)

What was measured:
K562 [1] = experiment: Growth inhibition of human K562 cells assessed as reduction in cell viability measured after 48 hrs by SRB assay; format: functional
SR = experiment: Growth inhibition of human SR cells assessed as reduction in cell viability measured after 48 hrs by SRB assay; format: functional
NCI-H226 = experiment: Growth inhibition of human NCI-H226 cells assessed as reduction in cell viability measured after 48 hrs by SRB assay; format: functional
SF-268 = experiment: Growth inhibition of human SF-268 cells assessed as reduction in cell viability measured after 48 hrs by SRB assay; format: functional
U-251 = experiment: Growth inhibition of human U-251 cells assessed as reduction in cell viability measured after 48 hrs by SRB assay; format: functional
M14 = experiment: Growth inhibition of human M14 cells assessed as reduction in cell viability measured after 48 hrs by SRB assay; format: functional
SK-MEL-5 = experiment: Growth inhibition of human SK-MEL-5 cells assessed as reduction in cell viability measured after 48 hrs by SRB assay; format: functional
OVCAR-8 = experiment: Growth inhibition of human OVCAR-8 cells assessed as reduction in cell viability measured after 48 hrs by SRB assay; format: functional
786-0 = experiment: Growth inhibition of human 786-0 cells assessed as reduction in cell viability measured after 48 hrs by SRB assay; format: functional
CAKI-1 = experiment: Growth inhibition of human CAKI-1 cells assessed as reduction in cell viability measured after 48 hrs by SRB assay; format: functional
SN12C = experiment: Growth inhibition of human SN12C cells assessed as reduction in cell viability measured after 48 hrs by SRB assay; format: functional
PC-3 = experiment: Growth inhibition of human PC-3 cells assessed as reduction in cell viability measured after 48 hrs by SRB assay; format: functional
DU-145 = experiment: Growth inhibition of human DU-145 cells assessed as reduction in cell viability measured after 48 hrs by SRB assay; format: functional
MDA-MB-231 = experiment: Growth inhibition of human MDA-MB-231 cells assessed as reduction in cell viability measured after 48 hrs by SRB assay; format: functional
MDA-MB-468 = experiment: Growth inhibition of human MDA-MB-468 cells assessed as reduction in cell viability measured after 48 hrs by SRB assay; format: functional
[2] = molecular target: Mitogen-activated protein kinase 9 (Homo sapiens, UniProt P45984); experiment: Inhibition of human JNK2 at 10 uM in presence of ATP relative to control
Chain of Mitogen-activated protein kinase 9 (P45984 whole entry, looked up): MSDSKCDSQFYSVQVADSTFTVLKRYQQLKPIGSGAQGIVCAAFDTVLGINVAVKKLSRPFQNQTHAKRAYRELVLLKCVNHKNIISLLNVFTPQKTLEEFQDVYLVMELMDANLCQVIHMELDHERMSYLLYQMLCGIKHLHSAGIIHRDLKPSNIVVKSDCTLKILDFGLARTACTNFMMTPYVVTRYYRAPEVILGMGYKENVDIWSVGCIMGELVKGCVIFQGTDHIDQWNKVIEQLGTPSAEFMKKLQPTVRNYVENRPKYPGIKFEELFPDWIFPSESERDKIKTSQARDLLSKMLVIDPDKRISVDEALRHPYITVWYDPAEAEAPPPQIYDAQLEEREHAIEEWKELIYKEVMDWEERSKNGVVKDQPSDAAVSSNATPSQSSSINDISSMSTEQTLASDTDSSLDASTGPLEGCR

[3] = molecular target: Mitogen-activated protein kinase 8 (Homo sapiens, UniProt P45983); experiment: Inhibition of human JNK1 in presence of ATP
Chain of Mitogen-activated protein kinase 8 (P45983 whole entry): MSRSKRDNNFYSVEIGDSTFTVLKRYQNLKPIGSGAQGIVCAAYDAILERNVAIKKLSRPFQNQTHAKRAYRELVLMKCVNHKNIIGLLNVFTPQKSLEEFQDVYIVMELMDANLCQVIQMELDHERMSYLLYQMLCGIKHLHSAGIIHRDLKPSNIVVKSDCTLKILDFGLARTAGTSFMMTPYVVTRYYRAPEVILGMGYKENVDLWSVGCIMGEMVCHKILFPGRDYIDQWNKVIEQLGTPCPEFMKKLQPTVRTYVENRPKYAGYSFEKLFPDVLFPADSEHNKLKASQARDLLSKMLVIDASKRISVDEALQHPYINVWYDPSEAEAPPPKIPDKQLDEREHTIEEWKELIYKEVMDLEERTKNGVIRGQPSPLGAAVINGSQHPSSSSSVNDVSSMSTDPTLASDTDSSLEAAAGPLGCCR

K562 [4] = experiment: Induction of cell cycle arrest in human K562 cells assessed as accumulation of cells at G2/M phase at 0.64 uM measured after 24 hrs by PI staining based flow cytometry analysis (reference value: 29.09%); format: functional
K562 [5] = experiment: Induction of cell cycle arrest in human K562 cells assessed as accumulation of cells at S phase at 1.28 uM measured after 24 hrs by PI staining based flow cytometry analysis (reference value: 21.74%); format: functional
K562 [6] = experiment: Induction of cell cycle arrest in human K562 cells assessed as accumulation of cells at SubG1 phase at 1.28 uM measured after 24 hrs by PI staining based flow cytometry analysis (reference value: 2.48%); format: functional
K562 [7] = experiment: Induction of cell cycle arrest in human K562 cells assessed as accumulation of cells at S phase at 1.25 uM measured after 24 hrs by PI staining based flow cytometry analysis (reference value: 20.42%); format: functional
K562 [8] = experiment: Induction of cell cycle arrest in human K562 cells assessed as accumulation of cells at S phase at 2.5 uM measured after 24 hrs by PI staining based flow cytometry analysis (reference value: 20.42%); format: functional
K562 [9] = experiment: Induction of cell cycle arrest in human K562 cells assessed as accumulation of cells at G0/G1 phase at 2.5 uM measured after 24 hrs by PI staining based flow cytometry analysis (reference value: 46.67%); format: functional
K562 [10] = experiment: Induction of cell cycle arrest in human K562 cells assessed as accumulation of cells at G0/G1 phase at 5 uM measured after 24 hrs by PI staining based flow cytometry analysis (reference value: 46.67%); format: functional
K562 [11] = experiment: Induction of cell cycle arrest in human K562 cells assessed as accumulation of cells at SubG1 phase at 1.25 uM measured after 24 hrs by PI staining based flow cytometry analysis (reference value: 3.43%); format: functional
K562 [12] = experiment: Induction of apoptosis in human K562 cells assessed as early apoptotic cells at 1.28 uM incubated for 24 hrs by annexinV and propidium iodide staining based flow cytometry analysis (reference value: 0.42%); format: functional
K562 [13] = experiment: Induction of apoptosis in human K562 cells assessed as early apoptotic cells at 2.56 uM incubated for 24 hrs by annexinV and propidium iodide staining based flow cytometry analysis (reference value: 0.42%); format: functional
K562 [14] = experiment: Induction of apoptosis in human K562 cells assessed as late apoptotic cells at 0.64 uM incubated for 24 hrs by annexinV and propidium iodide staining based flow cytometry analysis (reference value: 1.34%); format: functional
K562 [15] = experiment: Induction of apoptosis in human K562 cells assessed as early apoptotic cells at 5 uM incubated for 24 hrs by annexinV and propidium iodide staining based flow cytometry analysis (reference value: 0.42%); format: functional
K562 [16] = experiment: Induction of apoptosis in human K562 cells assessed as late apoptotic cells at 5 uM incubated for 24 hrs by annexinV and propidium iodide staining based flow cytometry analysis (reference value: 1.342%); format: functional

Structure (SMILES) | GI50 (K562 [1]) | GI50 (SR) | GI50 (NCI-H226) | GI50 (SF-268) | GI50 (U-251) | GI50 (M14) | GI50 (SK-MEL-5) | GI50 (OVCAR-8) | GI50 (786-0) | GI50 (CAKI-1) | GI50 (SN12C) | GI50 (PC-3) | GI50 (DU-145) | GI50 (MDA-MB-231) | GI50 (MDA-MB-468) | inhibition [2] | IC50 [3] | also measured
CC(C)(C)n1cc(-c2ccnc(NCCCNS(=O)(=O)c3ccc(Br)cc3)c2)c(-c2cccc(O)c2)n1 | 2.02 µM | 2 µM | 2.31 µM | 2.4 µM | 1.65 µM | 1.78 µM | 1.52 µM | 2.43 µM | 1.66 µM | 2.16 µM | 1.61 µM | 1.6 µM | 2.1 µM | 1.74 µM | 2.1 µM | 99.3% | 0.0978 µM | 
CC(C)(C)n1cc(-c2ccnc(NCCCNS(=O)(=O)c3ccc(C(F)(F)F)cc3)c2)c(-c2cccc(O)c2)n1 | 2.1 µM | 2.21 µM | 2.35 µM | 1.75 µM | 1.71 µM | 2 µM | 1.6 µM | 2.46 µM | 1.8 µM | 1.99 µM | 1.61 µM | 1.64 µM | 1.94 µM | 2.13 µM | 1.88 µM | 98.7% | 0.142 µM | 
O=C1c2ccccc2-c2n[nH]c3cccc1c23 | 48.6 µM | 13.1 µM | 22.9 µM | 18.4 µM | 23.1 µM | 100 µM | 14.6 µM | 22 µM | 27.1 µM | 3.56 µM | 14.8 µM | 23.3 µM | 28.2 µM | 65.3 µM |  |  |  | Activity (K562 [4]): 48.84%; Activity (K562 [5]): 16.61%; Activity (K562 [6]): 7.26%; Activity (K562 [7]): 19.52%; Activity (K562 [8]): 19.27%; Activity (K562 [9]): 30.88%; Activity (K562 [10]): 28.76%; Activity (K562 [11]): 4.71%; Activity (K562 [12]): 0.66%; Activity (K562 [13]): 1.05%; Activity (K562 [14]): 1.14%; Activity (K562 [15]): 1.5%; Activity (K562 [16]): 4.12%
